Reference: the NIST ThermoML archive (doi:10.1021/acs.jced.7b00106)
“And” between values parts separate entries of the source, which are not always exact repeats. Equal entries are not always repeated.

Conditions: Hot wire method

FC(F)(F)/C=C/Cl [(E)-1-chloro-3,3,3-trifluoroprop-1-ene]
Conditions | thermal conductivity
382.51 K, 10968 kPa, Liquid | 0.06711 W/m/K
382.51 K, 10976 kPa, Liquid | 0.0674 W/m/K
382.53 K, 24122 kPa, Liquid | 0.07474 W/m/K
382.54 K, 24143 kPa, Liquid | 0.07473 W/m/K
382.55 K, 1308 kPa, Liquid | 0.0594 W/m/K
382.56 K, 884 kPa, Fluid (supercritical or subcritical phases) | 0.01781 W/m/K and 0.01779 W/m/K
382.56 K, 1302 kPa, Liquid | 0.05937 W/m/K
382.56 K, 7890 kPa, Liquid | 0.06497 W/m/K
382.56 K, 7897 kPa, Liquid | 0.06497 W/m/K
382.56 K, 8382 kPa, Liquid | 0.06533 W/m/K
382.56 K, 8389 kPa, Liquid | 0.06536 W/m/K
382.58 K, 20086 kPa, Liquid | 0.07258 W/m/K
382.58 K, 20109 kPa, Liquid | 0.07262 W/m/K
382.6 K, 1196 kPa, Fluid (supercritical or subcritical phases) | 0.01858 W/m/K
382.61 K, 1196 kPa, Fluid (supercritical or subcritical phases) | 0.01858 W/m/K
382.62 K, 35572 kPa, Liquid | 0.07991 W/m/K
382.63 K, 6276 kPa, Liquid | 0.06372 W/m/K
382.63 K, 35594 kPa, Liquid | 0.08017 W/m/K
382.64 K, 727 kPa, Fluid (supercritical or subcritical phases) | 0.01771 W/m/K
382.64 K, 6276 kPa, Liquid | 0.06375 W/m/K
382.65 K, 16810 kPa, Liquid | 0.07072 W/m/K
382.65 K, 33011 kPa, Liquid | 0.079 W/m/K
382.66 K, 16821 kPa, Liquid | 0.07073 W/m/K
382.66 K, 33037 kPa, Liquid | 0.07905 W/m/K
382.7 K, 13733 kPa, Liquid | 0.0689 W/m/K
382.71 K, 13730 kPa, Liquid | 0.06888 W/m/K
382.71 K, 28321 kPa, Liquid | 0.07678 W/m/K
382.71 K, 28350 kPa, Liquid | 0.07685 W/m/K
382.72 K, 4298 kPa, Liquid | 0.06213 W/m/K
382.74 K, 4301 kPa, Liquid | 0.06214 W/m/K
382.77 K, 2602 kPa, Liquid | 0.06057 W/m/K
382.77 K, 2621 kPa, Liquid | 0.06066 W/m/K
382.77 K, 10954 kPa, Liquid | 0.06703 W/m/K
382.77 K, 24142 kPa, Liquid | 0.07452 W/m/K
382.78 K, 1001 kPa, Fluid (supercritical or subcritical phases) | 0.01826 W/m/K
382.78 K, 24124 kPa, Liquid | 0.07466 W/m/K
382.79 K, 1000 kPa, Fluid (supercritical or subcritical phases) | 0.0181 W/m/K
382.79 K, 10954 kPa, Liquid | 0.06707 W/m/K
382.81 K, 530 kPa, Fluid (supercritical or subcritical phases) | 0.01767 W/m/K
382.82 K, 7886 kPa, Liquid | 0.06511 W/m/K
382.83 K, 1306 kPa, Liquid | 0.05933 W/m/K
382.83 K, 8368 kPa, Liquid | 0.06524 W/m/K
382.83 K, 8383 kPa, Liquid | 0.06552 W/m/K
382.84 K, 1310 kPa, Liquid | 0.05941 W/m/K
382.84 K, 7894 kPa, Liquid | 0.06495 W/m/K
382.84 K, 20089 kPa, Liquid | 0.07256 W/m/K
382.85 K, 20100 kPa, Liquid | 0.07257 W/m/K
382.87 K, 883 kPa, Fluid (supercritical or subcritical phases) | 0.01794 W/m/K
382.87 K, 885 kPa, Fluid (supercritical or subcritical phases) | 0.01792 W/m/K
382.87 K, 35575 kPa, Liquid | 0.08013 W/m/K
382.87 K, 35578 kPa, Liquid | 0.08012 W/m/K
382.91 K, 1197 kPa, Fluid (supercritical or subcritical phases) | 0.01873 W/m/K
382.91 K, 6263 kPa, Liquid | 0.06365 W/m/K
382.91 K, 6280 kPa, Liquid | 0.06372 W/m/K
382.91 K, 33006 kPa, Liquid | 0.07896 W/m/K
382.91 K, 33028 kPa, Liquid | 0.07899 W/m/K
382.92 K, 16811 kPa, Liquid | 0.07071 W/m/K
382.92 K, 16817 kPa, Liquid | 0.0707 W/m/K
382.96 K, 28308 kPa, Liquid | 0.07685 W/m/K
382.97 K, 727 kPa, Fluid (supercritical or subcritical phases) | 0.01778 W/m/K
382.97 K, 28333 kPa, Liquid | 0.07679 W/m/K
382.98 K, 13709 kPa, Liquid | 0.06879 W/m/K
382.98 K, 13730 kPa, Liquid | 0.06887 W/m/K
383 K, 4290 kPa, Liquid | 0.06207 W/m/K
383.01 K, 4292 kPa, Liquid | 0.0621 W/m/K
383.03 K, 24102 kPa, Liquid | 0.07464 W/m/K
383.04 K, 24119 kPa, Liquid | 0.07466 W/m/K
383.05 K, 10954 kPa, Liquid | 0.06701 W/m/K
383.06 K, 2617 kPa, Liquid | 0.06075 W/m/K
383.06 K, 10970 kPa, Liquid | 0.06706 W/m/K
383.07 K, 2612 kPa, Liquid | 0.06066 W/m/K
383.08 K, 1001 kPa, Fluid (supercritical or subcritical phases) | 0.01823 W/m/K
383.08 K, 1002 kPa, Fluid (supercritical or subcritical phases) | 0.01821 W/m/K
